Among the data in PubChem BioAssay AID330 (DTP/NCI, 2004) are T/C values, retold here.

Structures are written as SMILES. Several values for one entry are separate records, joined by “and”; a condition that tells them apart may be missing. Equal values may be shown once. Toxic doses and inconclusive results are not listed.

In this test the test system is P388 leukemia ip, CD2F1 mice, survival T/C. Description: NCI In Vivo Anticancer Drug Screen. Data for tumor model P388 Leukemia (intraperitoneal) in CD2F1 (CDF1) mice. The settings on record: endpoint: median survival time, higher = longer survival. In short, it runs like this:
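Mice carrying the transplanted tumor received test compound or vehicle. Survival was recorded in each group, and the value is the treated-group measurement divided by that of the vehicle-treated control group.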

Where [1] appears, read: dose: 100.0 mg/kg/injection, schedule: Q01DX001 (ip), vehicle: saline with Tween-80.
The mark [2] stands for this setting: dose: 200.0 mg/kg/injection, schedule: Q01DX001 (ip), vehicle: saline with Tween-80.
The mark [3] stands for this setting: dose: 50.0 mg/kg/injection, schedule: Q01DX009 (ip), vehicle: saline.
Setting [4] is: dose: 100.0 mg/kg/injection, schedule: Q01DX009 (ip), vehicle: saline.
Where [5] appears, read: dose: 200.0 mg/kg/injection, schedule: Q01DX009 (ip), vehicle: saline.
Setting [6] is: dose: 25.0 mg/kg/injection, schedule: Q01DX009 (ip), vehicle: water.
The mark [7] stands for this setting: dose: 100.0 mg/kg/injection, schedule: Q01DX009 (ip), vehicle: water.
The mark [8] stands for this setting: dose: 60.0 mg/kg/injection, schedule: Q01DX005 (ip), vehicle: saline with Tween-80.
[9] abbreviates: dose: 120.0 mg/kg/injection, schedule: Q01DX005 (ip), vehicle: saline with Tween-80.
The mark [10] stands for this setting: dose: 240.0 mg/kg/injection, schedule: Q01DX005 (ip), vehicle: saline with Tween-80.
The mark [11] stands for this setting: dose: 50.0 mg/kg/injection, schedule: Q01DX009 (ip), vehicle: saline with Tween-80.
[12] abbreviates: dose: 100.0 mg/kg/injection, schedule: Q01DX009 (ip), vehicle: saline with Tween-80.
The mark [13] stands for this setting: dose: 200.0 mg/kg/injection, schedule: Q01DX009 (ip), vehicle: saline with Tween-80.
Setting [14] is: dose: 4.0 mg/kg/injection, schedule: Q01DX009 (ip), vehicle: saline with Tween-80.

For `CC1(c2cc(Cl)c(Cl)cc2Cl)NC(=O)NC1=O` (centres undefined), the T/C was 103 % of control under setting [1] and 112 % of control under setting [2].
As for `CCOC(=O)CCCCCOCOC`, the T/C under setting [1] was 106 % of control; the T/C under setting [2] is 98 % of control; the T/C (dose: 400.0 mg/kg/injection, schedule: Q01DX001 (ip), vehicle: saline with Tween-80) was 106 % of control.
Take `S=C=NP1(N=C=S)=NP(N=C=S)(N=C=S)=NP(N=C=S)(N=C=S)=N1` (centres undefined): the T/C was 107 % of control (dose: 50.0 mg/kg/injection, schedule: Q01DX005 (ip), vehicle: Klucel (hydroxypropylcellulose) (HPC)) and 97 % of control (dose: 100.0 mg/kg/injection, schedule: Q01DX005 (ip), vehicle: Klucel (hydroxypropylcellulose) (HPC)).
Regarding `Cc1ccc(-c2cc(=O)c3cc(C)c(C)c(C#N)c3o2)cc1`, the T/C runs as follows: (dose: 15.0 mg/kg/injection, schedule: Q01DX005 (ip), vehicle: Klucel (hydroxypropylcellulose) (HPC)) 94 % of control; (dose: 30.0 mg/kg/injection, schedule: Q01DX005 (ip), vehicle: Klucel (hydroxypropylcellulose) (HPC)) 87 % of control and 90 % of control; (dose: 60.0 mg/kg/injection, schedule: Q01DX005 (ip), vehicle: Klucel (hydroxypropylcellulose) (HPC)) 90 % of control; (dose: 120.0 mg/kg/injection, schedule: Q01DX005 (ip), vehicle: Klucel (hydroxypropylcellulose) (HPC)) 86 % of control and 88 % of control; (dose: 240.0 mg/kg/injection, schedule: Q01DX005 (ip), vehicle: Klucel (hydroxypropylcellulose) (HPC)) 96 % of control.
`CC1=NN(c2cc(Cl)c(S(=O)(=O)O)cc2Cl)C(=O)C1N=Nc1ccc(S(=O)(=O)O)cc1` (centres undefined): the T/C under setting [3] is 103 % of control, the T/C under setting [4] is 100 % of control and the T/C under setting [5] was 99 % of control.
Consider `O=NNc1cnc(Br)cn1`, for which the T/C runs as follows: (dose: 3.13 mg/kg/injection, schedule: Q01DX009 (ip), vehicle: water) 97 % of control; (dose: 6.25 mg/kg/injection, schedule: Q01DX009 (ip), vehicle: water) 101 % of control; (dose: 12.5 mg/kg/injection, schedule: Q01DX009 (ip), vehicle: water) 105 % of control and 108 % of control; under setting [6], 108 % of control and 118 % of control; under setting [7], 167 % of control.
Take `CC(N)C(=O)OCN1C(=O)C2C3C=CC(C2C1=O)C1C(=O)N(COC(=O)C(C)N)C(=O)C31` (centres undefined): the T/C was 100 % of control under setting [6]; 100 % of control (dose: 50.0 mg/kg/injection, schedule: Q01DX009 (ip), vehicle: water); 112 % of control under setting [7]; 121 % of control (dose: 200.0 mg/kg/injection, schedule: Q01DX009 (ip), vehicle: water).
Regarding `COc1cc(/C=N/NC(=O)CNC(=O)c2ccccc2)ccc1O`, the T/C runs as follows: under setting [8], 93 % of control; under setting [9], 95 % of control; under setting [10], 94 % of control.
Turning to `COC(=O)C[CH2][Sn]([CH2]CC(=O)OC)([c]1ccccc1)[c]1ccccc1`, the T/C was 100 % of control (dose: 50.0 mg/kg/injection, schedule: Q01DX005 (ip), vehicle: saline); 100 % of control (dose: 100.0 mg/kg/injection, schedule: Q01DX005 (ip), vehicle: saline); 97 % of control (dose: 200.0 mg/kg/injection, schedule: Q01DX005 (ip), vehicle: saline).
On to `CC(C)(C)NCC(O)c1ccc(O)c(NC=O)c1` (centres undefined), for which the T/C is 110 % of control under setting [11], 100 % of control under setting [12] and 102 % of control under setting [13].
Regarding `Cc1cnc(Cl)nc1Sc1nc(N)nc2nc[nH]c12`, the T/C reads like this: under setting [14], 150 % of control; (dose: 12.5 mg/kg/injection, schedule: Q01DX009 (ip), vehicle: saline with Tween-80) 122 % of control; (dose: 25.0 mg/kg/injection, schedule: Q04DX003 (ip), vehicle: saline with Tween-80) 154 % of control; (dose: 50.0 mg/kg/injection, schedule: Q04DX003 (ip), vehicle: saline with Tween-80) 159 % of control; (dose: 100.0 mg/kg/injection, schedule: Q04DX003 (ip), vehicle: saline with Tween-80) 100 % of control.
As for `CN(C)c1ccc(C(=O)C(O)c2ccccc2Cl)cc1` (centres undefined), the T/C is, setting by setting: (dose: 25.0 mg/kg/injection, schedule: Q01DX009 (ip), vehicle: saline with Tween-80) 104 % of control; under setting [11], 96 % of control; under setting [12], 96 % of control; under setting [13], 98 % of control.
Turning to `C=C(C#N)C(NC(C)(C)C)c1ccccc1` (centres undefined), the T/C by setting is: (dose: 12.5 mg/kg/injection, schedule: Q01DX001 (ip), vehicle: saline) 96 % of control; (dose: 25.0 mg/kg/injection, schedule: Q01DX001 (ip), vehicle: saline) 100 % of control; (dose: 50.0 mg/kg/injection, schedule: Q01DX001 (ip), vehicle: saline) 115 % of control.
For `CC(=O)SC1CC(=O)OC1=O` (centres undefined), the T/C runs as follows: (dose: 25.0 mg/kg/injection, schedule: Q01DX009 (ip), vehicle: saline) 100 % of control; under setting [3], 105 % of control; under setting [4], 96 % of control; under setting [5], 105 % of control.
For the compound `Cc1ccc(S(=O)(=O)OCOS(=O)(=O)c2ccc(C)cc2)cc1`, the T/C is 101 % of control (dose: 25.0 mg/kg/injection, schedule: Q01DX009 (ip), vehicle: Klucel (hydroxypropylcellulose) (HPC)); 120 % of control and 121 % of control (dose: 50.0 mg/kg/injection, schedule: Q01DX009 (ip), vehicle: Klucel (hydroxypropylcellulose) (HPC)); 122 % of control (dose: 100.0 mg/kg/injection, schedule: Q01DX009 (ip), vehicle: Klucel (hydroxypropylcellulose) (HPC)); 123 % of control (dose: 200.0 mg/kg/injection, schedule: Q01DX009 (ip), vehicle: Klucel (hydroxypropylcellulose) (HPC)); 160 % of control (dose: 400.0 mg/kg/injection, schedule: Q01DX009 (ip), vehicle: Klucel (hydroxypropylcellulose) (HPC)).
As for `CCN1CCC(OC(=O)c2ccccc2)(c2nccc3ccccc23)CC1`, the T/C under setting [11] is 112 % of control.
Take `CCCCCCCCCC(=O)OC(C)C(=O)N(CCCC)CCCC` (centres undefined): the T/C reads like this: under setting [12], 110 % of control; under setting [13], 102 % of control; (dose: 400.0 mg/kg/injection, schedule: Q01DX009 (ip), vehicle: saline with Tween-80) 106 % of control.
On to `O=C(O)CBr`, for which, under “dose: 25.0 mg/kg/injection, schedule: Q01DX005 (ip), vehicle: other”, the T/C was 110 % of control.
Turning to `CN(C)c1cc2c(nn1)Nc1ccccc1S2`, the T/C under setting [11] was 96 % of control, the T/C under setting [12] is 96 % of control and the T/C under setting [13] was 90 % of control.
With `CSC(=N\N=C\c1ccc2c(c1)OCO2)/N=C/N(C)C`, the T/C by setting is: under setting [8], 98 % of control; under setting [9], 97 % of control; under setting [10], 94 % of control.
For the compound `CCNc1ncc2c(n1)N(CC)C(=O)/C(=C\C(=O)OC)N2`, the T/C runs as follows: (dose: 37.5 mg/kg/injection, schedule: Q01DX009 (ip), vehicle: saline with Tween-80) 94 % of control; (dose: 150.0 mg/kg/injection, schedule: Q01DX009 (ip), vehicle: saline with Tween-80) 93 % of control.
With `N#CC12CCC(CC1)CC2Cl` (centres undefined), the T/C (dose: 0.5 mg/kg/injection, schedule: Q01DX009 (ip), vehicle: saline with Tween-80) is 108 % of control; the T/C (dose: 1.0 mg/kg/injection, schedule: Q01DX009 (ip), vehicle: saline with Tween-80) is 100 % of control; the T/C (dose: 2.0 mg/kg/injection, schedule: Q01DX009 (ip), vehicle: saline with Tween-80) is 106 % of control; the T/C under setting [14] is 113 % of control.
As for `C=C=COC`, the T/C by setting is: (dose: 60.0 mg/kg/injection, schedule: Q01DX005 (ip), vehicle: saline) 93 % of control; (dose: 120.0 mg/kg/injection, schedule: Q01DX005 (ip), vehicle: saline) 95 % of control; (dose: 240.0 mg/kg/injection, schedule: Q01DX005 (ip), vehicle: saline) 95 % of control.
For the compound `CCCCCCCCOCCS(=O)(=O)O`, the T/C by setting is: under setting [8], 95 % of control; under setting [9], 92 % of control.
Regarding `CC(C)OC1CC(C)(C)c2c(-c3ccccc3)nn(-c3ccccc3)c2O1` (centres undefined), the T/C is 109 % of control under setting [11], 98 % of control under setting [12] and 107 % of control under setting [13].
